# Assay results as given in patent US11628166B2, “Therapeutic uses of compounds having combined sert, 5-HT3 and 5-HT1a activity” (H. Lundbeck A/S, priority 2007, dated 2023).
# Key:
# [1] = Microdialysis, extracellular acetylcholine levels in brain of freely moving rats; type: in vivo, rat; settings: 2.5-10 mg/kg s.c.
# Description: The animals were administered 1-[2-(2,4-dimethylphenylsulfanyl)phenyl]piperazine, HBr salt.
# Male Sprague-Dawley rats, initially weighing 275-300 g, were used. The animals were housed under a 12-hr light/dark cycle under controlled conditions for regular in-door temperature (21±2° C.) and humidity (55±5%) with food and tap water available ad libitum.
# Rats were anaesthetised with hypnorm/dormicum (2 ml/kg) and intracerebral guide cannulas (CMA/12) were stereotaxically implanted into the brain, aiming at positioning the dialysis probe tip in the ventral hippocampus (co-ordinates: 5.6 mm posterior to bregma, lateral −5.0 mm, 7.0 mm ventral to dura) or in the prefrontal cortex (co-ordinates: 3.2 mm anterior to bregma; lateral, 0.8 mm; 4.0 mm ventral to dura). […] The body temperature of the animals was monitored by rectal probe and maintained at 37° C. […]
# The compound dissolved in 10% HPbetaCD and injected subcutaneously (2.5-10 mg/kg). Doses are expressed as mg salt/kg body weight. […]
# Concentration of acetylcholine (ACh) in the dialysates was analysed by means of HPLC with electrochemical detection using a mobile phase consisting of 100 mM disodium hydrogenphosphate, 2.0 mM octane sulfonic acid, 0.5 mM tetramethylammonium chloride and 0.005% MB (ESA), pH 8.0. […] The latter was detected electrochemical by using a platinum electrode (Analytical cell: ESA, model 5040). […]
# [2] = Contextual fear conditioning in rats; type: in vivo, rat; settings: for time spent freezing during the retention test: test 24 h after acquisition
# Text: The compound administered in the present experiment was 1-[2-(2,4-dimethylphenyl-sulfanyl)phenyl]piperazine HBr salt.
# We have studied the effect of the compound on acquisition, consolidation and recall of contextual fear conditioning in rats. In the fear conditioning paradigm animals learn to associate a neutral environment (context, the training chamber, CS) with an aversive experience (an electrical foot-shock, US). During re-exposure to the training chamber, animals express a freezing behaviour, which is taken as a direct measure of the fear-related memory [Pavlov J. Biol. Sci., 15, 177-182, 1980]. […] Neurosci., 106, 274-285, 1992].
# Adult male Sprague-Dawley rats (weighing 250-300 g at time of training) from Charles River Laboratories, housed two per cage under a 12 h light/dark cycle, were used. Food and water were available ad libitum. Rats were used 1 week after arrival. The compound was dissolved in 10% HPbetaCD and injected subcutaneously. The drug was administered in a volume of 2.5 ml/kg.
# Training and testing were conducted in a soundproof chamber (30×20×40 cm) housed in an isolated room and connected to a ventilation system. Illumination was provided by a white light (60 Watt). The floor of the chamber consisted of a metal grid attached to an electric shock generator. Prior to training and testing, the chamber was cleaned with a 70% ethanol solution. A video camera allowed for behavioral observations and recording of the training session for off-line analysis.
# During the acquisition animals were allowed to freely explore the novel environment for a 1 min habituation period, which co-terminated with one inescapable foot-shock (unconditioned stimulus, US) through the electrifiable grid floor. […] Animals remained in the conditioning chamber for another 60 s after the US. Freezing behaviour was scored during the first 58 s (pre-shock acquisition; experimenter blinded to groups) to determine baseline-freezing responses to the context. At the end of the acquisition animals were gently removed and placed into their home cages. After 24 h the same animals were reintroduced into the training context (fear conditioning chamber) and a 2 min retention test was performed. During this period no foot shocks were applied. Freezing behaviour was scored during the whole test period with the experimenter blinded to groups and presented as percent of total test period.
# [3] = Hygroscopicity / water absorption on exposure to humidity; type: physicochemical
# Solubility in water = type: physicochemical
# [4] = target: Human serotonin transporter (Homo sapiens, UniProt P31645); assay: Human serotonin transporter, blockade of 5-HT uptake; type: biochemical
# [5] = Clinical trial, HAM-D items 4, 5 and 6 (insomnia early, middle, late); type: in vivo, human; settings: 5 and 10 mg daily vs placebo, 6 weeks, approx. 100 patients per arm
# Description: (§1) The HAM-D scale may be used to assess the severity of depression in patients by means of a 24 items questionnaire. Item 4, 5 and 6 of the scale relate to how the patients sleep, i.e., is it easy to fall asleep (insomnia Early), does the patient wake up during the night (Insomnia Middle), and does the patient wake up early in the morning (Insomnia Late). The compound was tested at 5 and 10 mg daily against placebo with approximately 100 patients per arm. […] It is well-known that sleep disturbances are a general adverse effect of most antidepressants. In particular SSRI's and compounds which inhibit the noradrenaline transporter are reported to give rise to problems with sleep initiation and maintenance and problems with insomnia are also often reported [Int.Clin.Psychpharm., 21 (suppl 1), S25-S29, 2006]. Others report that such compounds give rise to suppressed REM sleep, increased sleep latency, less efficient sleep, increase in nocturnal awakenings, and fragmentation of sleep [Hum.Psychopharm.Clin.Exp., 20, 533-559, 2005].
# [6] = Clinical trial, sexually related adverse effects reported by patients; type: in vivo, human
# Description: as §1
# The above mentioned clinical trial also captured sexual adverse effects reported by the patients.
# [7] = Mouse intradermal formalin test; type: in vivo; settings: ~20-30 minutes after formalin
# Description: In this model, mice receive an injection of formalin (4.5%, 20 μl) into the left hind paw. The irritation caused by the formalin injection elicits a characteristic biphasic behavioural response, as quantified by the amount of time spent licking the injured paw.
# The first phase (˜0-10 minutes) represents direct chemical irritation and nociception, whereas the second phase (˜20-30 minutes) is thought to represent pain of […] origin. The two phases are separated by a quiescent period in which behaviour returns to normal. The effectiveness of test compounds to reduce the painful stimuli is assessed by counting the amount of time spent licking the injured paw in the two phases.
# Sequence of Human serotonin transporter (P31645 whole entry): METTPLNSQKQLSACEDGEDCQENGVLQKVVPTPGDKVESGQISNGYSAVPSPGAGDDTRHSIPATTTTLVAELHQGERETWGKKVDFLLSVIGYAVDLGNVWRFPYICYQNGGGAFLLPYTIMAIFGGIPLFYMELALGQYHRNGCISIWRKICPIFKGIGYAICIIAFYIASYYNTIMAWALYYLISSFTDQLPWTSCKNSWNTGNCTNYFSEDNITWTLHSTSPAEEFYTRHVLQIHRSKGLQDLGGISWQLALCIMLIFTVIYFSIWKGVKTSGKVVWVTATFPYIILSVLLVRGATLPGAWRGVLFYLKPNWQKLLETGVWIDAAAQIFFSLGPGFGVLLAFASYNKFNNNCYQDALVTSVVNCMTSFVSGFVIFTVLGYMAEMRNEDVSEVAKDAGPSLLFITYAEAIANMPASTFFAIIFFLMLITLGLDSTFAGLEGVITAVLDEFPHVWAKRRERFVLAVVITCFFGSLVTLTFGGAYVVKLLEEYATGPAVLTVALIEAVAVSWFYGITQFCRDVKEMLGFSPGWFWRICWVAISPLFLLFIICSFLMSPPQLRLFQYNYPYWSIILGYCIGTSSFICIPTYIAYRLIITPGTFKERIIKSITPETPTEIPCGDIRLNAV
structure (smiles),measurement,setting,value
"Br.Cc1ccc(Sc2ccccc2N2CCNCC2)c(C)c1 [1-[2-(2,4-dimethylphenylsulfanyl)phenyl]piperazine HBr salt]",extra-cellular levels of ACh in prefrontal cortex,[1]; rat prefrontal cortex,significantly increased
same,extra-cellular levels of ACh in ventral hippocampus,[1]; rat ventral hippocampus,significantly increased
same,time spent freezing during the retention test,"[2]; 5 mg/kg s.c. 1 h prior to acquisition, n=6",39.24±13.76%
same,freezing behaviour during the memory test,"[2]; 5 mg/kg s.c. 1 h prior to the retention test, n=9, p<0.05",12.86±3.57%
same,time spent freezing during the retention test,"[2]; 5 mg/kg s.c. after the acquisition session, n=8, p<0.05",45.58±4.50%
same,time spent freezing during the retention test,"[2]; 10 mg/kg s.c. 1 h prior to acquisition, n=10, p<0.01",52.15±5.68%
same,baseline freezing behaviour before the foot shock,"[2]; 1, 5 and 10 mg/kg s.c., 1 h prior to acquisition",does not affect baseline freezing behaviour
"Cc1ccc(Sc2ccccc2N2CCNCC2)c(C)c1 [Crystalline base, 1-[2-(2,4-dimethylphenylsulfanyl)-phenyl]piperazine]",hygroscopicity,[3],not hygroscopic
Br.Cc1ccc(Sc2ccccc2N2CCNCC2)c(C)c1 [alpha form of the hydrobromide],solubility in water,Solubility in water,2000 µg/mL
Br.Cc1ccc(Sc2ccccc2N2CCNCC2)c(C)c1 [beta form of the hydrobromide],solubility in water,Solubility in water,1200 µg/mL
"Cc1ccc(Sc2ccccc2N2CCNCC2)c(C)c1 [compound I, 1-[2-(2,4-dimethylphenyl-sulfanyl)-phenyl]piperazine]",IC50,[4],5.4 nM
same,"change in sleep pattern, HAM-D items 4-6",[5],large and dose dependent improvement of the sleep pattern
same,number of patients reporting Anorgasmia,[6]; 5 mg daily,0
same,number of patients reporting Ejaculation delayed,[6]; 5 mg daily,0
same,number of patients reporting Erectile dysfunction,[6]; 5 mg daily,0
same,number of patients reporting Libido decreased,[6]; 5 mg daily,1
same,number of patients reporting Loss of libido,[6]; 5 mg daily,1
same,number of patients reporting Orgasm abnormal,[6]; 5 mg daily,0
same,number of patients reporting Orgasmic sensation decreased,[6]; 5 mg daily,0
same,number of patients reporting Anorgasmia,[6]; 10 mg daily,0
same,number of patients reporting Ejaculation delayed,[6]; 10 mg daily,0
same,number of patients reporting Erectile dysfunction,[6]; 10 mg daily,0
same,number of patients reporting Libido decreased,[6]; 10 mg daily,1
same,number of patients reporting Loss of libido,[6]; 10 mg daily,0
same,number of patients reporting Orgasm abnormal,[6]; 10 mg daily,0
same,number of patients reporting Orgasmic sensation decreased,[6]; 10 mg daily,0
same,second phase pain scores (time spent licking the paw),[7],significant reduction
Br.Cc1ccc(Sc2ccccc2N2CCNCC2)c(C)c1 [gamma form of the hydrobromide],water absorbed,[3]; 30% RH at room temperature,about 2%
Br.Cc1ccc(Sc2ccccc2N2CCNCC2)c(C)c1 [hemi hydrate of the hydrobromide],water content,[3]; room temperature and 95% RH,about 3.7%
